Measured values reported in US20190315823A1, “SMALL CATIONIC ANTI-BIOFILM AND IDR PEPTIDES” (priority 2013, published 2019).
Ends that are not written are not given here.

Tests used:
[1] = system: methicillin resistant Staphylococcus aureus (MRSA) biofilm; conditions: approximate peptide concentration […] (around 3 μg/ml); compared to untreated samples
Method in brief: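 Static biofilm assay: 1/100 dilutions of overnight cultures grown in BM2 medium (pH 7, glucose, Casamino Acids) or Luria Broth with peptide added at time zero. After 22–46 h, adherent biofilm was stained with crystal violet and read at 595 nm. Some peptides were also tested on K. pneumoniae under flow in a Bioflux system.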

[2] = system: human peripheral blood mononuclear cells (MCP-1); test: SPOT-synthesized derivative screen: production of chemokine MCP-1; format: cell-based; conditions: Table 12, No LPS, human PBMC, peptide at ~18-24 μM; for MCP1: background subtracted 139 (HH2 derivatives), 170 (1018 derivatives), 242 (1002 and hybrid peptides) pg/ml
Method in brief: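 PBMC from heparinized healthy-donor venous blood, Ficoll-separated, cultured at 0.75 to 1×10^6 cells/ml, 37 °C, 5% CO2, under the treatment regimens. MCP-1 in cell-free supernatants measured by capture ELISA.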

[3] = system: LPS-stimulated human peripheral blood mononuclear cells (IL1-β); format: cell-based; conditions: Table 12, cells stimulated with 10 ng/ml LPS; for IL1β Production: LPS alone 1313 (HH2 derivatives), 1927 (1018 derivatives), 2455 (1002 and hybrid peptides) pg/ml

Substance	% Biofilm inhibition [1] [%]	Fold increase in MCP1 cf. untreated cells [2]	MCP1 [2] [pg/mL]	Fold change in IL1β relative to no peptide LPS stimulated cells [3]	IL1β Production [3] [pg/mL]
HH2-I4: single substituted HH2 peptide (VQLIIRVAVIRA-NH2)	47	11	1669	0.58	760
HH2-K12: single substituted HH2 peptide (VQLRIRVAVIRK-NH2)	67	15	2329	0.92	1203
HH2-K10: single substituted HH2 peptide (VQLRIRVAVKRA-NH2)	68	5.7	797	1.43	1878
1018-G3: single substituted 1018 peptide (VRGIVAVRIWRR-NH2) [Peptide 1018-G3]	42	1.5	83	0.57	748
1002-K4: single substituted 1002 peptide (VQRKLIVWRIRK-NH2) [Peptide 1002-K4]	0	1.4	106.3	0.43	1065
HH2-V2: single substituted HH2 peptide (VVLRIRVAVIRA-NH2)	77	24	3945	0.97	1267
1002-V6: single substituted 1002 peptide (VQRWLVVWRIRK-NH2) [Peptide 1002-V6]	71	1.5	113.5	0.05	127
1018-A9: single substituted 1018 peptide (VRLIVAVRAWRR-NH2) [Peptide 1018-A9]	49	0.5	-88	0.90	1176
1002-Q1: single substituted 1002 peptide (QQRWLIVWRIRK-NH2) [Peptide 1002-Q1]	77	6.9	1423.5	0.05	127
HH2-V4: single substituted HH2 peptide (VQLVIRVAVIRA-NH2)	60	20	3216	0.67	877
1018-Q6: single substituted 1018 peptide (VRLIVQVRIWRR-NH2) [Peptide 1018-Q6]	55	0.7	-54	0.14	186
1018-Q1: single substituted 1018 peptide (QRLIVAVRIWRR-NH2) [Peptide 1018-Q1]	46	3.1	363	0.12	158
1018-R5: single substituted 1018 peptide (VRLIRAVRIWRR-NH2) [Peptide 1018-R5]	4	0.8	-41	1.50	1973
HH2-Q4: single substituted HH2 peptide (VQLQIRVAVIRA-NH2)	45	2.4	246	0.62	817
1002-W9: single substituted 1002 peptide (VQRWLIVWWIRK-NH2) [Peptide 1002-W9]	73	1.0	12.0	0.05	127
HH2-R2: single substituted HH2 peptide (VRLRIRVAVIRA-NH2)	54	4.6	604	1.10	1438
HH2-L6: single substituted HH2 peptide (VQLRILVAVIRA-NH2)	18	1.8	138	0.69	901
1002-V8: single substituted 1002 peptide (VQRWLIVVRIRK-NH2) [Peptide 1002-V8]	56	7.1	1468.2	0.08	198
HH2-V10: single substituted HH2 peptide (VQLRIRVAVVRA-NH2)	68	36	5929	1.06	1390
1018-R4: single substituted 1018 peptide (VRLRVAVRIWRR-NH2) [Peptide 1018-R4]	58	0.6	-65	0.47	615
1002-I5: single substituted 1002 peptide (VQRWIIVWRIRK-NH2) [Peptide 1002-I5]	84	24.2	5633.1	0.08	186
1002-I8: single substituted 1002 peptide (VQRWLIVIRIRK-NH2) [Peptide 1002-I8]	69	6.7	1393.2	0.06	144
1018-G6: single substituted 1018 peptide (VRLIVGVRIWRR-NH2) [Peptide 1018-G6]	36	22	3560	0.46	598
1002-A7: single substituted 1002 peptide (VQRWLIAWRIRK-NH2) [Peptide 1002-A7]	58	0.9	-36.2	0.05	132
1018-W12: single substituted 1018 peptide (VRLIVAVRIWRW-NH2) [Peptide 1018-W12]	65	1.5	79	0.34	441
1018-W5: single substituted 1018 peptide (VRLIWAVRIWRR-NH2) [Peptide 1018-W5]	55	0.8	-28	0.10	127
1002-Q5: single substituted 1002 peptide (VQRWQIVWRIRK-NH2) [Peptide 1002-Q5]	48	0.9	-36.2	0.07	180
1002-R4: single substituted 1002 peptide (VQRRLIVWRIRK-NH2) [Peptide 1002-R4]	36	0.9	-36.2	0.34	834
HH2-Q1: single substituted HH2 peptide (QQLRIRVAVIRA-NH2)	57	65	10838	0.89	1171
HH2-G6: single substituted HH2 peptide (VQLRIGVAVIRA-NH2)	33	8.6	1287	1.08	1423
